{"source": "patent US9187406B2", "about": "(The Research Foundation of State University of New York, priority 2009, dated 2015)", "key": {"[1]": {"molecular_target": "MMP-9 generated by PC-3 human prostate cancer cells (Homo sapiens (Human), UniProt P14780)", "experiment": "MMP-9 in conditioned media of PC-3 cells, gelatin zymography and Western blot", "assay_type": "cell-based", "details": "10 μM and 20 μM, 48 hr, serum-free media", "protocol": "Compound 1 was evaluated in a cell culture model of cancer. […] After the incubation, aliquots of the conditioned media were assayed for MMP-9 (gelatinase B) by either of two techniques, gelatin zymography (in the presence of 2 or 10 mMCa^++) and Western blot (both assays used purified MMP-9, 92 kDa gelatinase, as a standard)."}, "MMP-2": {"molecular_target": "MMP-2 (Rattus norvegicus (Rat), UniProt P33436)", "experiment": "Diabetic rat model, 3-week oral treatment: skin MMP-2 by ELISA", "assay_type": "in vivo", "details": "both low and high doses, 3 weeks", "protocol": "(§1) At the end of the treatment protocol, the rats were sacrificed, blood samples were collected, and whole skin (except over limbs) and gingiva were dissected (the skin, because of ample quantities of tissue were analyzed for each rat separately; the gingiva, because of the tiny amounts that could be harvested per rat, were pooled for each experimental group, as prescribed previously for tetracycline studies (30). In addition, the jaw bones were collected, defleshed, and bone loss around the teeth analyzed morphometrically as described previously (42, 43)."}, "human monocytes [2]": {"tested_on": "human monocytes", "experiment": "Cytotoxicity in human monocytes (MTS)", "assay_type": "cell-based"}, "[3]": {"molecular_target": "chromatographically-purified MMP-2 (Homo sapiens (Human), UniProt P08253)", "sequence (P08253 110-660)": "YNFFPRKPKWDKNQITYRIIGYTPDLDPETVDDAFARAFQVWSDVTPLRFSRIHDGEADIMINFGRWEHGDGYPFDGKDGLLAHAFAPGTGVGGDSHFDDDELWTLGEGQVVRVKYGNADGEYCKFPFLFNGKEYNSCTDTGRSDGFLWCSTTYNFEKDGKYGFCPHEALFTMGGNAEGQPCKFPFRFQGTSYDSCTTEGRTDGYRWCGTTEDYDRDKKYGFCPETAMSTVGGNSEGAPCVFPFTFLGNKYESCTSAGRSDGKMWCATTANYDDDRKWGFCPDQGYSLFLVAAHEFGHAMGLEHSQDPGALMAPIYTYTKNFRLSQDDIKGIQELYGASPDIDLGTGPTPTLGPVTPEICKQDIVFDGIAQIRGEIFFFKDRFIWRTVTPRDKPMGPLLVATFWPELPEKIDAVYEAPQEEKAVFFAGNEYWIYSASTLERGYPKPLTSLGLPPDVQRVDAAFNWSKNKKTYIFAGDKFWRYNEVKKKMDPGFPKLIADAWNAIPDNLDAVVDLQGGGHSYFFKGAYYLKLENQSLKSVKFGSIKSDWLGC", "experiment": "MMP-2 inhibition in vitro, octapeptide/HPLC", "assay_type": "biochemical"}, "[4]": {"tested_on": "caspase-3 activity in neonatal rat ventricular myocytes", "experiment": "Doxorubicin mediated caspase-3 activity", "assay_type": "cell-based", "details": "10 μM, doxorubicin 500 nM, 6 h and 24 h", "protocol": "(§2) Test compounds and concentrations (MMP inhibitors, MMPi): • 1. GM-6001: 10 μM • 2. ONO-4817: 10 μM • 3.\nNeonatal rat ventricular myocytes, serum starved for 24 h, were treated with the inhibitors 1 h prior to the addition of 500 nM of doxorubicin (Sigma). At the indicated time points cells were washed with ice-cold phosphate buffered saline and lysed using RIPA buffer (Pierce) containing protease and phosphatase inhibitors (Sigma). Caspase-3 activity in the cell lysates was measured by incubation with 7-amino-4-trifluoromethyl coumarin (Enzo)."}, "[5]": {"molecular_target": "MMP-2 (72 kDa gelatinase) (Rattus norvegicus (Rat), UniProt P33436)", "experiment": "Diabetic rat model, 1-week oral treatment: plasma MMP-2 by gelatin zymography", "assay_type": "in vivo", "details": "diabetic rats, 100 mg/kg oral once/day for 7 days"}, "[6]": {"molecular_target": "T1, MMP-9 (92 kDa gelatinase) (Rattus norvegicus (Rat), UniProt P50282)", "experiment": "Diabetic rat model, 1-week oral treatment: plasma MMP-9 by gelatin zymography", "assay_type": "in vivo", "details": "diabetic rats, 100 mg/kg oral once/day for 7 days"}, "[7]": {"experiment": "Solubility in aqueous solutions", "assay_type": "physicochemical"}, "[8]": {"molecular_target": "MMP-9 (human leukocyte gelatinase) (Homo sapiens (Human), UniProt P14780)", "sequence (P14780 94-707)": "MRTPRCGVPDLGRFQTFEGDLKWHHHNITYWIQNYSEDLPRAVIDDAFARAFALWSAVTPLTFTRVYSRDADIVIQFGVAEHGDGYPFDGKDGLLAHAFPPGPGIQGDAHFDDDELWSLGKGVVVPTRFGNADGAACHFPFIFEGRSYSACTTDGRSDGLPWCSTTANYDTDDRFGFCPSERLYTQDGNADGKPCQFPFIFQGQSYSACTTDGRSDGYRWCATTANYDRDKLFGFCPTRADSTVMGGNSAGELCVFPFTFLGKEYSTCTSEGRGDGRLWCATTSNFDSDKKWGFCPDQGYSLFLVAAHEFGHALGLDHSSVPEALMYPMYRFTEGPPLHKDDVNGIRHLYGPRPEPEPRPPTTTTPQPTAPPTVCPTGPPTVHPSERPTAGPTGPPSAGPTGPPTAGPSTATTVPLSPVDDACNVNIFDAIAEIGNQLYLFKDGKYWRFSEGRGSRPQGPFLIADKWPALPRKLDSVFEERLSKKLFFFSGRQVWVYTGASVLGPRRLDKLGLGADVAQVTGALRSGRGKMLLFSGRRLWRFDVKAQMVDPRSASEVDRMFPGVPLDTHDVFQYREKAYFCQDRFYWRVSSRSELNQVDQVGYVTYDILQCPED", "experiment": "MMP-9 inhibition in vitro, octapeptide/HPLC", "assay_type": "biochemical", "text": "In contrast all three chemically-modified curcumins at 100 μm final concentration inhibited gelatinase activity by 68-100% (FIG. 6 and Table 6)."}, "MCP-1, TNFα, VEGF": {"tested_on": "MCP-1, TNFα, VEGF", "experiment": "Cytokine and growth factor levels in LPS-challenged human monocytes, Luminex multiplex", "assay_type": "cell-based", "details": "2 μM, FIG. 2", "protocol": "The cytokine levels were measured by Luminex multiplex, a method that allows the simultaneous measurement of different biological markers."}, "[9]": {"experiment": "Extractability/recovery from human serum by HPLC", "details": "human", "protocol": "Detection of compounds & extractability/recovery from human serum (for future use to determine in vivo pharmacokinetics) was achieved using HPLC. The HPLC detection method is briefly described herein. 50 μl of buffer or human serum containing 166.67 μM, 16.67 μM and 1.67 μM of the compounds were incubated with 100 μl pre-cooled (−10° C.) extraction solvent containing CAN-MeOH-0.5M oxalic acid at a ratio of 60:30:10. The mixture was vortexed and centrifuged at 10,000 rpm for 10 min. The supernatant was then aliquoted and injected into an HPLC for analysis. Stock solutions of the compounds were made 100× in DMSO, then further diluted with buffer or serum."}, "diabetic rats": {"tested_on": "diabetic rats", "experiment": "Diabetic rat model, 1-week oral treatment: diabetic adverse events", "assay_type": "in vivo", "details": "100 mg/kg oral once/day for 7 days, n = 6"}, "MMP-2 (gelatinase A)": {"molecular_target": "MMP-2 (gelatinase A) (Rattus norvegicus (Rat), UniProt P33436)", "experiment": "Diabetic rat model, 3-week oral treatment: gingival MMP-2 by gelatin zymography", "assay_type": "in vivo", "details": "diabetic rats, oral daily, 3 weeks", "protocol": "as §1\n(§3) This appearance of MMP-9 only in the gingiva (FIG. 10), but not the skin (FIG. 12), of the diabetic rats is likely the result of the oral bacteria inducing inflammation in the gingiva of these immune-suppressed UD rats, whereas the skin is not exposed to this onslaught of bacteria particularly the anaerobic gram-negative bacteria in the mouth that cause periodontal and gingival inflammation."}, "[10]": {"tested_on": "neonatal rat ventricular myocytes", "experiment": "Hydrogen peroxide induced LDH release", "assay_type": "cell-based", "details": "10 μM, H2O2 100 μM", "protocol": "as §2\nNeonatal rat ventricular myocytes, serum starved for 24 h, were treated with the inhibitors 1 h prior to the addition of 100 μM of hydrogen peroxide (Sigma). LDH release in the conditioned media was quantified using CytoTox-ONE Homogeneous Membrane Integrity Assay reagent (Promega) at the indicated time points."}, "purified human PMN MMP-8": {"molecular_target": "purified human PMN MMP-8 (Homo sapiens (Human), UniProt P22894)", "sequence (P22894 101-467)": "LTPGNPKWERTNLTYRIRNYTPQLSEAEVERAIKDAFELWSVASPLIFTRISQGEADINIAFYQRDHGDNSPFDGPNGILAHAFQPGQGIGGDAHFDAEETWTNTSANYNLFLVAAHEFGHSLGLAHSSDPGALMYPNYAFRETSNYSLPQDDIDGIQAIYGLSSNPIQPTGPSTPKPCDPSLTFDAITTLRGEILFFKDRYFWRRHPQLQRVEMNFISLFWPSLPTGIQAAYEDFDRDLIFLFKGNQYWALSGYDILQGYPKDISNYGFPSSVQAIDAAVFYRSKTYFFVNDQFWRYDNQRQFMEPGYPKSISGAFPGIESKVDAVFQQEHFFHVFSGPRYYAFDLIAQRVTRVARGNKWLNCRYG", "experiment": "MMP-8 inhibition, synthetic octapeptide substrate, tripeptide product by HPLC", "assay_type": "biochemical"}, "p38 MAP kinase": {"tested_on": "p38 MAP kinase", "experiment": "p38 MAP kinase activation", "assay_type": "cell-based, human", "details": "preliminary studies"}, "IL-1β": {"tested_on": "IL-1β", "experiment": "Diabetic rat model, 3-week oral treatment: gingival IL-1β by ELISA", "assay_type": "in vivo", "details": "3 weeks", "protocol": "as §1"}, "[11]": {"molecular_target": "T1, MMP-9 (92 kDa gelatinase)", "experiment": "Diabetic rat model, 3-week oral treatment: gingival MMP-9 by gelatin zymography", "assay_type": "in vivo", "details": "diabetic rats, 100 mg/kg and 500 mg/kg oral daily, 3 weeks", "protocol": "as §1, §3"}, "[12]": {"experiment": "Diabetic rat model, 1-week oral treatment: serum glucose", "assay_type": "in vivo", "details": "diabetic rats, 100 mg/kg oral once/day for 7 days", "text": "The purpose of the following was to establish an in vivo model of excessive collagen degradation to be used to test efficacy of the compounds of the subject invention. Male Sprague-Dawley rats (typically 300-400 gms of body weight), specific viral antibody free, were ordered from Charles River. Following general anesthesia via isoflurane anesthetic inhalation, diabetes was induced by an I.V. administration of streptozotocin (STZ) (50* mg/kg body weight) (Sigma Chemical Co., St Louis, Mo., USA) diluted in 0.9% citrated saline (pH 4.5), after 12 hours of fasting. After the streptozotocin injection, the animals were given free access to water and food. […] In this test, the test-paper color changes to dark brown which indicates glycosuria.\nThe latter assays were carried out using Western blot analysis with monoclonal antibodies to MMP-8."}, "[13]": {"tested_on": "alveolar (periodontal) bone loss in diabetic rats", "experiment": "Diabetic rat model, 3-week oral treatment: alveolar bone loss, morphometric", "assay_type": "in vivo", "details": "3 weeks", "protocol": "as §1\nAlveolar bone loss (the signature pathologic event in inflammatory periodontal disease) was assessed in the defleshed jaws of the compound 1-treated (TX) and untreated rats."}, "human monocytes [14]": {"tested_on": "human monocytes", "experiment": "Cytotoxicity in human monocytes (MTS)", "assay_type": "cell-based", "protocol": "Briefly, human peripheral blood monocytes (HMs) were isolated from a leukocyte concentrate by density gradient centrifugation (Lymphoprep) and the isolated HMs cultured (2 h, 37° C.) to remove non-adherent cells. The adherent HMs were cultured for 18 h (1×10^6 cells/well, 24-well plates)±endotoxin (LPS)±different compounds dissolved in DMSO (the final concentration of DMSO in the RPMI serum-free culture media with Pen./Strep. antibiotics was no greater than 0.5%). After incubation, the proinflammatory cytokines, TNFα, IL-1β, MCP-1 and IL-6 were measured in the conditioned media by ELISA and cytotoxicity was assessed by measuring the absorbance (490 nm) of formazan produced by reduction of MTS. The HMs alone ±0.1-0.5% DMSO produced minimal levels of these pro-inflammatory cytokines. However, addition of 100 ng/ml or 10 μg/ml of LPS both dramatically stimulated cytokine production.", "remark": "listed apart in the source"}, "[15]": {"experiment": "Diabetic rat model, 3-week oral treatment: blood glucose and hemoglobin A1c", "assay_type": "in vivo", "details": "diabetic rats, 100 mg/kg and 500 mg/kg oral daily, 3 weeks", "protocol": "as §1"}}, "note": "Read-outs that look alike come from different tables or passages of the source.", "data": [{"compound": "COC(=O)C(C(=O)/C=C/c1ccc(O)c(OC)c1)C(=O)/C=C/c1ccc(O)c(OC)c1", "note": "[Compound 1, 1,7-Bis(4-hydroxy-3-methoxyphenyl)-4-methoxycarbonylhepta-1E,6E-dien-3,5-dione]", "values": [{"measurement": "Production and/or activity of MMP-9", "setting": "[1]", "value": "inhibited the production and/or activity of MMP-9"}, {"measurement": "Reduction of elevated MMP-2 level in skin (ELISA)", "setting": "MMP-2", "value": 28, "unit": "%"}, {"measurement": "Cytotoxicity Monocytes @ 5 h incubation", "setting": "human monocytes [2]; 2 uM", "value": 2, "unit": "uM- 0%"}, {"measurement": "Cytotoxicity Monocytes @ 5 h incubation", "setting": "human monocytes [2]; 10 uM", "value": 10, "unit": "uM- 0%"}, {"measurement": "Cytotoxicity Monocytes @ 5 h incubation", "setting": "human monocytes [2]; 25 uM", "value": 25, "unit": "uM- 33%"}, {"measurement": "Maximum Inhibition @ 100 μM, MMP-2", "setting": "[3]; 100 μM", "value": 78, "unit": "%"}, {"measurement": "IC50", "setting": "[3]; read-out: IC50 MMP-2", "value": 48, "unit": "µM"}, {"measurement": "Effect on caspase-3 activity mediated by doxorubicin", "setting": "[4]", "value": "None of the MMP inhibitors, including compound 1, negatively modulate caspase-3 activity"}, {"measurement": "Plasma MMP-2 level", "setting": "[5]", "value": "reduced the excessive levels of MMPs to essentially normal levels"}, {"measurement": "Plasma MMP-9 level", "setting": "[6]", "value": "reduced the excessive levels of MMPs to essentially normal levels"}, {"measurement": "Solubility in aqueous solutions (comparative)", "setting": "[7]", "value": "more soluble than the insoluble natural product curcumin"}, {"measurement": "IC50", "setting": "[8]", "value": 16, "unit": "µM"}, {"measurement": "Reduction of proinflammatory cytokines and growth factors (MCP-1, TNFα, VEGF)", "setting": "MCP-1, TNFα, VEGF", "value": "potent in reducing proinflammatory cytokines such as MCP-1 and TNFα and growth factors such as VEGF"}, {"measurement": "Recovery from human serum", "setting": "[9]", "value": "76-80%"}, {"measurement": "Description of AEs", "setting": "diabetic rats", "value": "Minor inflamed sclera"}, {"measurement": "Incidence of Adverse Events (AEs)", "setting": "diabetic rats", "value": "1/6"}, {"measurement": "Pro- and activated-forms of MMP-2 in gingiva", "setting": "MMP-2 (gelatinase A)", "value": "neither diabetes nor compound 1 appeared to have a detectable effect"}, {"measurement": "LDH release", "setting": "[10]; 6 h", "value": "24286±930"}, {"measurement": "Effect on LDH release", "setting": "[10]; 24 h", "value": "less dramatic effect"}, {"measurement": "IC50", "setting": "purified human PMN MMP-8; Example 7 experiment, 1 mM Ca++, 37° C., read-out: IC50, human neutrophil collagenase (MMP-8)", "value": 10, "unit": "µM"}, {"measurement": "IC50 against purified hMMP-8", "setting": "purified human PMN MMP-8; Table 1 experiments", "value": "equivalent to that of 1,10-O-phenanthroline"}, {"measurement": "IC50", "setting": "purified human PMN MMP-8; Table 1 experiments, read-out: IC50 against purified hMMP-8", "value": 35, "unit": "µM"}, {"measurement": "Effect on p38 MAP kinase activation", "setting": "p38 MAP kinase", "value": "little/no effect"}, {"measurement": "Reduction of IL-1β in gingiva vs untreated diabetic", "setting": "IL-1β; higher oral dose (500 mg/kg)", "value": 95, "unit": "%"}, {"measurement": "Reduction of IL-1β in gingiva vs untreated diabetic", "setting": "IL-1β; lower oral dose (100 mg/kg)", "value": "about 18%"}, {"measurement": "MMP-9 level in gingiva", "setting": "[11]", "value": "reduced MMP-9 to the undetectable levels"}, {"measurement": "Effect on severity of hyperglycemia (serum glucose)", "setting": "[12]", "value": "no effect on the severity of hyperglycemia"}, {"measurement": "Reduction in alveolar bone loss vs untreated groups", "setting": "[13]; 100 mg/kg oral, p<0.05", "value": "~60", "unit": "%"}, {"measurement": "Reduction in alveolar bone loss vs untreated groups", "setting": "[13]; 500 mg/kg oral", "value": "less effective"}, {"measurement": "Cytotoxicity Monocytes @ 18 h incubation", "setting": "human monocytes [14]; 25 uM", "value": 25, "unit": "uM- 45.5%"}, {"measurement": "Cytotoxicity Monocytes @ 18 h incubation", "setting": "human monocytes [14]; 50 uM", "value": 50, "unit": "uM- 53%"}, {"measurement": "Effect on blood glucose and hemoglobin A1c levels", "setting": "[15]", "value": "no significant effect"}]}]}
